4 compounds from article PMC7521880 (European Journal of Medicinal Chemistry, 2020) can be followed below.

This assay deals with varicella-zoster virus (VZV, TK+ Oka strain). The class given is cell-based. To be noted: VZV in HEL cells; strain not specified.

Where only a bound is given, the exact number is not on record here.

On to `CC(=O)OC[C@H]1O[C@@H](n2cc3c(C#CC4(O)c5ccccc5-c5ccccc54)c(-c4ccc(C)cc4)oc3nc2=O)C[C@@H]1OC(C)=O` [Compound 6c, 3-(3′,5′-di-O-acetyl-2′-deoxy-β-D-ribofuranosyl)-5-((9-hydroxy-9H-fluoren-9-yl)ethynyl)-6-(4-methylphenyl)-2,3-dihydrofuro[2,3-d]pyrimidin-2-one], for which the “Selectivity index (SI), ratio CC50 for HEL cells / EC50” value was not above 1. For the compound `CCCCCc1ccc(-c2oc3nc(=O)n([C@H]4C[C@H](OC(C)=O)[C@@H](COC(C)=O)O4)cc3c2C#CCCO)cc1` [Compound 7b, 3-(3′,5′-di-O-acetyl-2′-deoxy-β-D-ribofuranosyl)-5-(4-hydroxybut-1-yn-1-yl)-6-(4-pentylphenyl)-2,3-dihydrofuro[2,3-d]pyrimidin-2-one], the “Selectivity index (SI), ratio CC50 for HEL cells / EC50” value is listed as not above 1. Turning to `CC(=O)OC[C@H]1O[C@@H](n2cc3c(C#Cc4ccc(C)cc4)c(-c4ccc(C)cc4)oc3nc2=O)C[C@@H]1OC(C)=O` [Compound 6h, 3-(3′,5′-di-O-acetyl-2′-deoxy-β-D-ribofuranosyl)-6-(4-methylphenyl)-5-((4-methylphenyl)ethynyl)-2,3-dihydrofuro[2,3-d]pyrimidin-2-one], the “Selectivity index (SI), ratio CC50 for HEL cells / EC50” value is reported as not above 1. `CCCCCc1ccc(-c2oc3nc(=O)n([C@H]4C[C@H](OC(C)=O)[C@@H](COC(C)=O)O4)cc3c2C#CCO)cc1` [Compound 7a, 3-(3′,5′-di-O-acetyl-2′-deoxy-β-D-ribofuranosyl)-5-(3-hydroxyprop-1-yn-1-yl)-6-(4-pentylphenyl)-2,3-dihydrofuro[2,3-d]pyrimidin-2-one]: the “Selectivity index (SI), ratio CC50 for HEL cells / EC50” value is reported as not above 1.
